These results are taken from patent US20250269036A1, “METHODS FOR ENHANCEMENT OF ENGINEERED CELL THERAPIES IN CANCER TREATMENT” (PURDUE RESEARCH FOUNDATION, priority 2021, published 2025).

Data set [1] deals with IL-4, IL-6 plus IL-13 stimulated THP-1 cells (M2-like macrophages). In words: Reprogramming of M2-polarized THP-1 macrophages, marker mRNA by qPCR. Format: cell-based, human. The protocol: THP-1 cells were initially selected as a model system because this human monocytic cell line is known to acquire an M2-like phenotype and produce significant quantities of anti-inflammatory cytokines upon stimulation with IL-4, IL-6 plus IL-13.
THP-1 cells were seeded into 96-well plates at a density of 60,000 cells/well. Cells were differentiated into unpolarized macrophages by 48 hours incubation with 200 nM PMA followed by 24 hours incubation in fresh RPMI medium. […] Cultures were maintained at 37° C. in a humidified 5% CO2 incubator.
Total RNA was isolated from 1×10^5-2×10^5 macrophages using a Quick-RNATM MicroPrep kit (Zymo Research, Irvine, CA) according to the manufacturer-recommended protocol. […] IL-6, CXCL10, IFNα, IFN-γ and CD86 were used as markers for an M1 phenotype, while CCL18, CD206, CD163 and Arg1 were employed as markers for the M2 phenotype. IL-1β, PDGFβ, MMP9 and TIMP 3 were measured as indicators of an anti-inflammatory phenotype. IRAK-4 was used as an indicator of TLR7 stimulation. To control for specificity of the amplification products, a melting curve analysis was performed. […] Each sample was analyzed independently in triplicate for each marker.
Primarily, human monocytic (THP-1) cells were induced to the M2-like phenotype using the methods and materials previously described. In particular, THP-1 cells were seeded into 96-well plates at a density of 60,000 cells/well. Cells were differentiated into unpolarized macrophages by 48h incubation with 200 nM PMA followed by 24 hours incubation in fresh RPMI medium. The resulting macrophages were polarized to an M2-like phenotype by incubation with 20 ng/ml IL-4, 20 ng/ml IL-13, and 5 ng/mL IL-6 for 48h. Cultures were maintained at 37° C. in a humidified 5% CO2 incubator.
In addition to the nonconjugated TLR7 agonist, conjugated compounds of the present disclosure were likewise evaluated. […] The cells were subsequently harvested for gene analysis by qPCR and the relative expression of CCL18 (FIG. 14A), CD206 (FIG. 14B), and IL-1β (FIG. 14C) analyzed.
In general terms: Quantitative PCR measures a nucleic acid by following its amplification.

For data set [2], the system named is M2-induced THP-1 macrophages. In words: Secreted CCL18 and IL-1β in THP-1 macrophage supernatants by ELISA. Format: cell-based, human. The protocol:
FIGS. 6A-6D show graphical data representative of various marker levels measured from M2-induced THP-1 macrophages treated with different concentrations of drugs for 48 hours (FIGS. 6A and 6B) or for 2 hours, then displaced with fresh medium and cultured for the remaining 46 hours (FIGS. 6C and 6D). In both cases, cell supernatants were collected and secreted CCL18 protein and IL-1β was detected by ELISA.
CCL18 and IL-1β were quantified in induced THP-1 cell supernatants using a human DuoSet ELISA Development System (R&D Systems Europe, Abingdon, UK; #DY394-05) and an IL-1 beta Human ELISA Kit (Thermo Fisher Scientific, Waltham, MA; #BMS224-2) as described by manufactures. BALF samples were analyzed for mouse IFN-γ using ELISA MAX™ Deluxe (Biolegend, San Diego, CA; #430804).
In general terms: In an ELISA, binding on a coated surface is turned into a signal by an enzyme label.

Data set [3] is described as follows: Stability during incubation in culture media. In kind it is physicochemical. As to conditions: 37° C. in the culture media, 48 hours. The protocol:
Indeed, Compound 1B retained the original structure after 48 hours incubation.

For data set [4], the system named is BM-induced mice. The protocol:
Studies were also performed to determine if macrophages in pulmonary fibrotic lungs might be specifically targeted with folate-linked drugs in vivo. […] (The BM model is widely regarded to be helpful in terms of enabling mechanistic investigations relevant to fibrogenesis in an in vivo context.)
More specifically, eight-week-old C57BL6 male mice from Charles River (average weight 22 g to 25 g) were housed under pathogen-free conditions at room temperature (22° C.) under a 12 hours light-dark cycle. Mice were placed on a folate deficient chow (Envigo Teklad Global Rat Food Pellets) for 1 week prior to the BM or PBS instillation. Fresh water and folate-deficient diet were freely available. All animal procedures were approved by the Purdue Animal Care and Use Committee in accordance with National Institute of Health guidelines.
Thereafter, the mice were anesthetized with ketamine/xylazine and the necks of the mice were shaved using hair remover lotion and then sterilized with 70% alcohol. A small incision was made on the neck to visualize the trachea. Mice were positioned at a 75-degree angle and injected intratracheally with 100 μL sterile PBS or BM (Cayman Chemicals, Ann Arbor, MI; #13877) dissolved in PBS (0.75 mg/kg) using a 1 cc syringe with 26 G needle. Body weights were monitored every other day throughout the experiment.
After 2 hours, mice were sacrificed using CO2 asphyxiation and an incision in the skin from the abdomen to neck was immediately made to expose the lungs and trachea. A small cut in the upper trachea was then introduced for insertion of a blunted, 22-gauge needle, and a nylon string was tied around the trachea to seal the trachea around the needle. The trachea (containing the inserted needle), lungs and heart were then removed en masse by carefully cutting the connective tissue beneath the lungs, and the bronchus of left lung was clipped with a Dieffenbach vessel clip. The right lung was injected with PBS and aspirated 3 times using a 1 ml syringe, and the recovered lavage fluid was saved on ice.
Bronchoalveolar lavage fluid (BALF) was then analyzed to determine how the targeted TLR7 agonist works. BALF samples were centrifuged at 1500 rpm for 5 min at 4° C. and the supernatant was aliquoted and stored at −80° C. for cytokine/chemokine analyses. Cell pellets were resuspended and cultured in pre-warmed RPMI 1640 medium for 2 hours and then washed 3× with pre-warmed PBS prior to harvesting for qPCR assay. The right lung was then tied with a nylon string and used for subsequent analysis of hydroxyproline content. The left lung was inflated with 1 ml PBS using the inserted syringe and transferred to 10% formalin solution for subsequent histological analyses.
Lobes of the right lung collected above were weighed, placed in a pressure-tight vial (Supelco Inc., Bellefonte, PA; #27003), and hydrolyzed with 6N HCl (10 ml/g, v/w) in a sand bath at 120° C. for 3.5 hours. The hydrolyzed solution was cooled at 4° C. for 15 min and transferred to a 1.5 ml Eppendorf tube prior to centrifugation at 12,000 rcf for 15 min at 4° C. Supernatant was carefully collected, aliquoted and used for hydroxyproline (HYP) analysis.
For the subsequent HYP analysis, 10 μl of sample was transferred into a 96-well plate and neutralized with 10 μl of 5.3 M sodium hydroxide solution. Isopropanol (40 μl) was then added to each well followed by 20 μl of oxidation buffer and the mixture was incubated on a shaker at room temperature for 5 min. […]

In data set [5] the test system is M2-induced human monocyte-derived macrophages. In words: Reprogramming of M2-induced human monocyte-derived macrophages. To be noted: 100 nM, 2 hours + 46 hours, excess FA-glucosamine. In kind it is cell-based. The protocol:
Changes in both sets of cytokines were inhibited by blockade of unoccupied folate receptors with excess FA-glucosamine (2+46h, competition).

In data set [6] the test system is healthy mice. In words: Plasma cytokine levels in healthy mice after tail vein injection. Format: in vivo. The protocol: (FIGS. 20A-C) Measurement of plasma IL-6 (FIG. 20A), IFNα (FIG. 20B) and TNFα (FIG. 20C) (n=3). (FIGS. 20D-F). The effect of drug concentration on plasma levels of IL-6 (FIG. 20D), IFNα (FIG. 20E), and TNFα (FIG. 20F) was determined at 1.5h, 1h, or 1h after treatment, respectively (n=2) (FIG. 20G).
(FIGS. 36C and 36D). The effect of drug on plasma levels of IL-6 (FIG. 36C) and TNFα (FIG. 36D) was determined at 1 hour or 1.5 hours after treatment.

Data set [7] has as its system fibrotic lungs. In words: Staining of healthy and fibrotic lung sections (DAPI, anti-F4/80, anti-CD206). Format: in vivo, mice. To be noted: differences between treated groups. From the text: Sections from the same healthy and fibrotic lungs described in FIG. 6 were stained with DAPI (nuclei; blue), anti-F4/80 (macrophages; red), and anti-CD206 (M2 macrophage marker; green), and images were obtained with a Leica Versa 8 whole-slide scanner as described in Methods (n=2). Scale bars, 100 μm.

Where [8] appears, read: 2 hours with drug, then drug-free medium.
[9] abbreviates: incubated continuously for 48 hours, ELISA.

For `CCCCc1nc2c(N)nc3ccccc3c2n1CC(C)(C)OC(=O)OCCSSCC(NC(=O)CCC(NC(=O)c1ccc(NCc2cnc3nc(N)[nH]c(=O)c3n2)cc1)C(=O)O)C(=O)O` (centres unmarked) [Compound 1B], in data set [1] (2 hours incubation, harvested immediately or after further 46 hours), the “cancer/M2-type markers (CCL18, CD206, IL-1β, PDGFβ mRNA)” value is listed as “downregulated cancer/M2-type markers of macrophages more than Compound 1A”. Moreover, in data set [1] (setting [8]), the TNFα induction result was “dramatically improved” and the “potency in reprogramming relative to comparator” value is given as “superior potency relative to Compound 1A”. Further, the “M2 to M1 marker changes (FIGS. 3A-3F)” value in data set [1] (48 hours incubation, various concentrations) is given as “same qualitative changes were observed, only the magnitude of the impact of Compound 1B was somewhat reduced”. Further, the “reduction of secreted CCL18 and IL-1β, comparison of compounds” value in data set [2] (drug exposure limited to 2 hours, then 46 hours fresh medium) is reported as “superior”. In data set [2] (setting [9]), the “secreted CCL18 polypeptide” value was “reductions” and the “secreted IL-1β polypeptide” value is reported as “reductions”. In addition, the stability during incubation entry in data set [3] is “remained stable”. The “lung histology with increasing dose” value in data set [4] (0, 1, 3 or 10 nmoles) was “lung histology improved”. Also, the “hydroxyproline content of lung hydrolysates, order of efficacy by dose” value in data set [4] (0, 1, 3 or 10 nmoles every other day from day 10, day 21) was 10 nmol/mouse>3 nmol/mouse>1 nmol/mouse>0 nmol/mouse. Moreover, the “total number of BALF cells” value in data set [4] (different doses, day 21) is listed as “decreased in a dose-dependent manner”. The “collagen stain (Masson's trichrome)” value in data set [4] (tail vein injection) is reported as “strongly suppressed”. For the same compound, the “lung architecture (H&E staining)” value in data set [4] (treated beginning on day 10) is given as “lung architecture that resembles that of healthy mice”. Also, the “downregulation of biomarkers in presence of competitor” value in data set [5] is given as “blocked”. Also, the “inflammatory cytokine release, dose comparison” value in data set [6] (effect of drug concentration, 1.5h, 1h or 1h after treatment) is reported as “stimulates less inflammatory cytokine release than half the dose of Compound 1A”. Further, in data set [6] (healthy mice, tail vein, 10 nmol), the “systemic cytokine release (plasma IL-6, IFNα, TNFα)” value is “does not”. The “proinflammatory response in vivo (lung section staining)” value in data set [7] is “robust proinflammatory response”.
